Data reported in patent US20240174671A1, “New 2,3-Dihydro-1H-pyrrolo[3,2-b]pyridine Derivatives as Sigma Ligands” (ACONDICIONAMIENTO TARRASENSE, priority 2021, published 2024).
Read-outs that look alike come from different tables or passages of the source.

Key:
human σ1 receptor = target: T1, human σ1 receptor (Homo sapiens, UniProt Q99720); experiment: Human σ1 receptor radioligand assay ([3H](+)-pentazocine); format: binding
T1 construct: expressed in transfected cells; host or cells: HEK-293
T1 sequence (Q99720 whole entry): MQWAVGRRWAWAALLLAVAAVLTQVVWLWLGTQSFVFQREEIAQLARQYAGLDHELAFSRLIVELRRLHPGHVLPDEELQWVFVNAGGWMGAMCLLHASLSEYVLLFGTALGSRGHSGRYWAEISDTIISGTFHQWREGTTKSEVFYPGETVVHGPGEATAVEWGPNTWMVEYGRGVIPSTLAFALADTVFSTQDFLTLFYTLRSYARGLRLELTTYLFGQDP
How it was run: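 Binding used [3H](+)-pentazocine, 120 min at 37° C, with non-specific binding defined by 10 μM haloperidol. Bound radioligand was collected by filtration, washed with ice-cold 10 mM Tris-HCl pH 7.4 and counted by scintillation.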

human σ2/TMEM97 receptor = target: T2, human σ2/TMEM97 receptor (Homo sapiens, UniProt Q5BJF2); experiment: Binding assay to human σ2/TMEM97 receptor ([3H]-DTG)
T2 construct: expressed in transfected cells; host or cells: HEK-293
T2 sequence (Q5BJF2 whole entry): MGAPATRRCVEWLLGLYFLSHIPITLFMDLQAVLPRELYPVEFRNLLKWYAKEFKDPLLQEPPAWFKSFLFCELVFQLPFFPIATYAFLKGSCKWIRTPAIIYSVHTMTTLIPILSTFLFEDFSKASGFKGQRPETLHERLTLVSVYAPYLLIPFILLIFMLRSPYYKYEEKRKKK
How it was run: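 Membranes from transfected HEK-293 cells incubated with 10 nM [3H]-DTG in 50 mM Tris-HCl pH 8.0, 120 min at 25 °C; non-specific binding defined with 10 μM haloperidol. Bound radioactivity counted after filtration; compounds tested as % inhibition at 1 or 10 μM or at five concentrations for Ki.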

[1] = transfected HEK-293 membranes, 5 nM [3H](+)-pentazocine, 37° C., 120 minutes, read-out: Binding σ-[…] (binding to σ1-receptor expressed as Ki)
[2] = transfected HEK-293 membranes, 10 nM [3H]-DTG, 25° C., 120 minutes, read-out: Binding σ-[…] (binding to σ2-receptor expressed as Ki)

Compound | Ki (human σ1 receptor; [1]) | Ki (human σ2/TMEM97 receptor; [2]) | Ki (human σ2/TMEM97 receptor) | Ki (human σ1 receptor)
CN(Cc1ccc(C#N)c(F)c1)C1CCN(C(=O)N2CC(C)(C)c3ncccc32)CC1 [Example 87, 4-(((1-(3,3-dimethyl-2,3-dihydro-1H-pyrrolo[3,2-b]pyridine-1-carbonyl)piperidin-4-yl)(methyl)amino)methyl)-2-fluorobenzonitrile] | 500 to 1000 nM | < 100 nM |  | 
CC1(C)CN(C(=O)NC2CN(Cc3ccccc3)C2)c2cccnc21 [Example 88, N-(1-benzylazetidin-3-yl)-3,3-dimethyl-2,3-dihydro-1H-pyrrolo[3,2-b]pyridine-1-carboxamide] | 100 to 500 nM | > 1000 nM |  | 
CC1(C)CN(C(=O)N2CCC3(CCN(Cc4ccccc4)CC3)C2)c2cccnc21 [Example 89, (8-benzyl-2,8-diazaspiro[4.5]decan-2-yl)(3,3-dimethyl-2,3-dihydro-1H-pyrrolo[3,2-b]pyridin-1-yl)methanone] | < 100 nM | < 100 nM |  | 
CC1(C)CN(C(=O)N2CCC3(CCN(Cc4cccc(C#N)c4)CC3)C2)c2cccnc21 [Example 90, 3-((2-(3,3-dimethyl-2,3-dihydro-1H-pyrrolo[3,2-b]pyridine-1-carbonyl)-2,8-diazaspiro[4.5]decan-8-yl)methyl)benzonitrile] | 100 to 500 nM | < 100 nM |  | 
Cc1ccc2c(n1)C(C)(C)CN2C(=O)N1CCC2(CCN(CCc3ccccc3)CC2)C1 [Example 91, (8-phenethyl-2,8-diazaspiro[4.5]decan-2-yl)(3,3,5-trimethyl-2,3-dihydro-1H-pyrrolo[3,2-b]pyridin-1-yl)methanone] | 500 to 1000 nM |  | < 100 nM | 
Cc1ccc2c(n1)C(C)(C)CN2C(=O)N1CCC2(CCN(Cc3cccc(C#N)c3)CC2)C1 [Example 92, 3-((2-(3,3,5-trimethyl-2,3-dihydro-1H-pyrrolo[3,2-b]pyridine-1-carbonyl)-2,8-diazaspiro[4.5]decan-8-yl)methyl)benzonitrile] | > 1000 nM | < 100 nM |  | 
Cc1ccc2c(n1)C(C)(C)CN2C(=O)N1CCC2(CC1)CN(Cc1ccccc1)C2 [Example 93, (2-benzyl-2,7-diazaspiro[3.5]nonan-7-yl)(3,3,5-trimethyl-2,3-dihydro-1H-pyrrolo[3,2-b]pyridin-1-yl)methanone] | 100 to 500 nM | 100 to 500 nM |  | 
Cc1ccc2c(n1)C(C)(C)CN2C(=O)N1CCC2(CCN(Cc3ccccn3)CC2)C1 [Example 94, (8-(pyridin-2-ylmethyl)-2,8-diazaspiro[4.5]decan-2-yl)(3,3,5-trimethyl-2,3-dihydro-1H-pyrrolo[3,2-b]pyridin-1-yl)methanone] | > 1000 nM | 100 to 500 nM |  | 
COc1cccc(CN2CCC3(CC2)CCN(C(=O)N2CC(C)(C)c4nc(C)ccc42)C3)c1 [Example 95, (8-(3-methoxybenzyl)-2,8-diazaspiro[4.5]decan-2-yl)(3,3,5-trimethyl-2,3-dihydro-1H-pyrrolo[3,2-b]pyridin-1-yl)methanone] | > 1000 nM | < 100 nM |  | 
Cc1ccc2c(n1)C(C)(C)CN2C(=O)N1CCC2(CCN(C(C)c3ccccc3)CC2)C1 (stereo not shown) [Example 96, (8-(1-phenylethyl)-2,8-diazaspiro[4.5]decan-2-yl)(3,3,5-trimethyl-2,3-dihydro-1H-pyrrolo[3,2-b]pyridin-1-yl)methanone] | 100 to 500 nM | 100 to 500 nM |  | 
O=C(N1CC[C@H](NCCc2ccccc2)C1)N1CCc2ncccc21 [Example 97, (S)-(2,3-dihydro-1H-pyrrolo[3,2-b]pyridin-1-yl)(3-(phenethylamino)pyrrolidin-1-yl)methanone] | 500 to 1000 nM | > 1000 nM |  | 
Cc1ccc2c(n1)C(C)(C)CN2C(=O)N1CCC2(CCN(Cc3cccnc3)CC2)C1 [Example 98, (8-(pyridin-3-ylmethyl)-2,8-diazaspiro[4.5]decan-2-yl)(3,3,5-trimethyl-2,3-dihydro-1H-pyrrolo[3,2-b]pyridin-1-yl)methanone] | > 1000 nM | < 100 nM |  | 
Cc1ccc2c(n1)C(C)(C)CN2C(=O)N1CCC2(CCN(Cc3ccncc3)CC2)C1 [Example 99, (8-(pyridin-4-ylmethyl)-2,8-diazaspiro[4.5]decan-2-yl)(3,3,5-trimethyl-2,3-dihydro-1H-pyrrolo[3,2-b]pyridin-1-yl)methanone] | > 1000 nM | < 100 nM |  | 
Cc1ccc2c(n1)C(C)(C)CN2C(=O)N1CCC2(CCN(CCC(C)C)CC2)C1 [Example 100, (8-isopentyl-2,8-diazaspiro[4.5]decan-2-yl)(3,3,5-trimethyl-2,3-dihydro-1H-pyrrolo[3,2-b]pyridin-1-yl)methanone] | 500 to 1000 nM | < 100 nM |  | 
O=C(N1CCC[C@H](NCCc2ccccc2)C1)N1CCc2ncccc21 [Example 101, (S)-(2,3-dihydro-1H-pyrrolo[3,2-b]pyridin-1-yl)(3-(phenethylamino)piperidin-1-yl)methanone] | > 1000 nM | 100 to 500 nM |  | 
Cc1ccc2c(n1)C(C)(C)CN2C(=O)N1CCC2(CCN(Cc3cccc(S(C)(=O)=O)c3)CC2)C1 [Example 102, (8-(3-(methylsulfonyl)benzyl)-2,8-diazaspiro[4.5]decan-2-yl)(3,3,5-trimethyl-2,3-dihydro-1H-pyrrolo[3,2-b]pyridin-1-yl)methanone] | > 1000 nM | < 100 nM |  | 
COc1ccc(CN2CCC3(CC2)CCN(C(=O)N2CC(C)(C)c4nc(C)ccc42)C3)cc1 [Example 103, (8-(4-methoxybenzyl)-2,8-diazaspiro[4.5]decan-2-yl)(3,3,5-trimethyl-2,3-dihydro-1H-pyrrolo[3,2-b]pyridin-1-yl)methanone] | 100 to 500 nM | < 100 nM |  | 
CC1(C)CN(C(=O)NC2CC3(CCN(Cc4ccccc4)CC3)C2)c2cccnc21 [Example 104, N-(7-benzyl-7-azaspiro[3.5]nonan-2-yl)-3,3-dimethyl-2,3-dihydro-1H-pyrrolo[3,2-b]pyridine-1-carboxamide] | 100 to 500 nM | 100 to 500 nM |  | 
Cc1ccc2c(n1)C(C)(C)CN2C(=O)N1CCC2(CCN(CC3CCOCC3)CC2)C1 [Example 105, (8-((tetrahydro-2H-pyran-4-yl)methyl)-2,8-diazaspiro[4.5]decan-2-yl)(3,3,5-trimethyl-2,3-dihydro-1H-pyrrolo[3,2-t]pyridin-1-yl)methanone] | 500 to 1000 nM | < 100 nM |  | 
CC(C)CCN1CCC(CNC(=O)N2CC(C)(C)c3ncccc32)CC1 [Example 106, N-((1-isopentylpiperidin-4-yl)methyl)-3,3-dimethyl-2,3-dihydro-1H-pyrrolo[3,2-b]pyridine-1-carboxamide] | 500 to 1000 nM | 100 to 500 nM |  | 
Cc1ccc2c(n1)C(C)(C)CN2C(=O)N1CCC2(CCN(Cc3ccc(F)c(C#N)c3)CC2)C1 [Example 107, 2-fluoro-5-((2-(3,3,5-trimethyl-2,3-dihydro-1H-pyrrolo[3,2-b]pyridine-1-carbonyl)-2,8-diazaspiro[4.5]decan-8-yl)methyl)benzonitrile] | > 1000 nM | < 100 nM |  | 
Cc1ccc2c(n1)C(C)(C)CN2C(=O)N1CCC2(CCN(CCC3CCOCC3)CC2)C1 [Example 108, (8-(2-(tetrahydro-2H-pyran-4-yl)ethyl)-2,8-diazaspiro[4.5]decan-2-yl)(3,3,5-trimethyl-2,3-dihydro-1H-pyrrolo[3,2-t]pyridin-1-yl)methanone] | > 1000 nM | < 100 nM |  | 
CC(C)(C)CCN1CCC(CNC(=O)N2CC(C)(C)c3ncccc32)CC1 [Example 109, N-((1-(3,3-dimethylbutyl)piperidin-4-yl)methyl)-3,3-dimethyl-2,3-dihydro-1H-pyrrolo[3,2-b]pyridine-1-carboxamide] | 100 to 500 nM | < 100 nM |  | 
Cc1ccc2c(n1)C(C)(C)CN2C(=O)N1CCC2(CCN(C3CCOCC3)CC2)C1 [Example 110, (8-(tetrahydro-2H-pyran-4-yl)-2,8-diazaspiro[4.5]decan-2-yl)(3,3,5-trimethyl-2,3-dihydro-1H-pyrrolo[3,2-b]pyridin-1-yl)methanone] | > 1000 nM | < 100 nM |  | 
CN[C@H](CNC(=O)N1CC(C)(C)c2nc(C)ccc21)c1ccccc1 [Example 111, (S)-3,3,5-trimethyl-N-(2-(methylamino)-2-phenylethyl)-2,3-dihydro-1H-pyrrolo[3,2-b]pyridine-1-carboxamide] | 100 to 500 nM | > 1000 nM |  | 
CN[C@@H](CNC(=O)N1CC(C)(C)c2nc(C)ccc21)c1ccccc1 [Example 112, (R)-3,3,5-trimethyl-N-(2-(methylamino)-2-phenylethyl)-2,3-dihydro-1H-pyrrolo[3,2-b]pyridine-1-carboxamide] | 100 to 500 nM | > 1000 nM |  | 
CCN[C@@H](CNC(=O)N1CC(C)(C)c2nc(C)ccc21)c1ccccc1 [Example 113, (R)—N-(2-(ethylamino)-2-phenylethyl)-3,3,5-trimethyl-2,3-dihydro-1H-pyrrolo[3,2-b]pyridine-1-carboxamide] |  | > 1000 nM |  | 100 to 500 nM
Cc1ccc2c(n1)C(C)(C)CN2C(=O)N1CCC(N(C)Cc2ccc(F)cc2)CC1 [Example 114, (4-((4-fluorobenzyl)(methyl)amino)piperidin-1-yl)(3,3,5-trimethyl-2,3-dihydro-1H-pyrrolo[3,2-b]pyridin-1-yl)methanone] | 100 to 500 nM | < 100 nM |  | 
Cc1ccc2c(n1)C(C)(C)CN2C(=O)N1CCC(NCc2ccccc2)CC1 [Example 115, (4-(benzylamino)piperidin-1-yl)(3,3,5-trimethyl-2,3-dihydro-1H-pyrrolo[3,2-b]pyridin-1-yl)methanone] | > 1000 nM | 100 to 500 nM |  | 
